ChEMBL document CHEMBL1123905

molecular target: Histamine H2 receptor (Cavia porcellus) (UniProt P47747); assay: Antagonism of histamine stimulated rate of beating of guinea pig right atrium mediated by Histamine H2 receptor; assay type: functional, tissue-based; settings: Cardiac atrium
Sequence (P47747 whole entry): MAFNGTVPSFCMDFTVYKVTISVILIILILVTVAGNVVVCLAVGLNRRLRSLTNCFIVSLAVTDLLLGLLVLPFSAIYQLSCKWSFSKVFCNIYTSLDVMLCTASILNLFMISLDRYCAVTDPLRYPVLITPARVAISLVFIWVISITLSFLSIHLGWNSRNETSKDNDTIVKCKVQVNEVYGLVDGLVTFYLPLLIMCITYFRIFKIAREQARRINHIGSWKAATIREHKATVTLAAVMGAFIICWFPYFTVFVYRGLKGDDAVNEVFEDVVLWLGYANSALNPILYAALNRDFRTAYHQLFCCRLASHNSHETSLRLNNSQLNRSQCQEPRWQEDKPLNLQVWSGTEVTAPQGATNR

| SMILES | -Log KB |
| --- | --- |
| Cc1[nH]cnc1CSCCNc1ncccc1C(=O)O | 5.09 |
| Cc1[nH]cnc1CSCCNc1cc(C(=O)O)ccn1 | 3.76 |
| Cc1[nH]cnc1CSCC/N=C(\N)c1ccc(O)cc1 | 4.2 |
| Cc1[nH]cnc1CSCCNc1ncccc1S(=O)(=O)O | 3.77 |
| Cc1[nH]cnc1CSCC/N=C(\N)C(=O)O | 5.41 |
| CN/C(=N\CCSCc1nc[nH]c1C)NC#N | 6.1 |
| CN/C(=N\CCSCc1[nH]cnc1C)P(=O)(O)OC | 4.25 |
| Cc1[nH]cnc1CSCCNc1ncccc1O | 5.89 |
| Cc1[nH]cnc1CSCC/N=C(\N)c1ccc(C(=O)O)cc1 | 3.7 |
| CN/C(=N\CCSCc1[nH]cnc1C)S(=O)(=O)O | 5.87 |
| Cc1[nH]cnc1CSCCNc1ccc(C(=O)O)cn1 | < 3.3 |
| CN/C(=N\CCSCc1[nH]cnc1C)S(=O)O | 5.73 |
| Cc1[nH]cnc1CSCC/N=C(\N)CC(=O)O | 3.3 |
